Results reported in patent publication US11813264B2, “PAR1 modulation to alter myelination” (Mayo Foundation for Medical Education and Research, priority 2014, dated 2023).
“Also recorded” adds a separate entry of the source.

Legend:
[1] = tested on: Erk1/2 phosphorylation; assay: Klk6-PAR signaling assay, Erk1/2 phosphorylation by Western blot in Oli-neu; type: cell-based, mouse
Procedure: Klk6-PAR signaling assays: To examine the ability of Klk6 to mediate PAR-dependent signaling in oligodendrocytes, Oli-neu oligodendroglia (3.5×10^5 cells/well in six-well plates) were treated with Klk6 (150 nM) for 10 min, followed by protein harvest. Cell lysates were analyzed for phosphorylated or nonphosphorylated Erk1/2 by Western blot. In experiments to determine the role of PARs in Klk6 signaling, Oli-neu were preincubated with the PAR1 antagonist, SCH79797 dihydrochloride (50 nM, Tocris Biosciences, Minneapolis, MN) for 30 minutes prior to Klk6 application.
Western blot: Oli-neu lysates were obtained using a buffer containing 1% NP40, 0.5% deoxycholate, 10% glycerol, and 20 mM Tris base and separated on SDS-polyacrylamide gels prior to transfer. Membranes were blocked with 5% milk in TBS-T and incubated overnight with primary antibodies including rabbit anti-phospho-Erk1/2 (1:1,000, Cell Signaling Technology, Danvers, MA), followed with a species-appropriate horseradish peroxidase-conjugated secondary antibody (1:20,000 GE Healthcare Unlimited, UK). Signal was detected using Chemiluminescence Supersignal Pico (Pierce, Rockford, IL). Western blots were repeated three times from independent cultures, scanned, and quantified by densitometry (BioRad Quantity One 1-D Analysis Software, BioRad, Hercules, CA). Erk1/2 signal was normalized to its nonphosphorylated form. Equal loading was verified by reprobing blots for […] (Novus Biologicals, Littleton, CO).

[2] = tested on: oligodendrocyte progenitor cells (OPCs); assay: OPC process outgrowth; type: cell-based, mouse
Procedure: Oligodendrocyte Cultures: Purified cortical oligodendrocyte progenitor cells (OPCs) and differentiated oligodendrocytes were isolated from mixed glial cultures derived from postnatal day 1 mice (McCarthy and de Vellis, J Cell Blot 85:890-902, 1980). Glial cultures were grown in media containing DMEM, 2 mM Glutamax, 1 mM sodium pyruvate, 20 mM HEPES, and 10% heat-inactivated fetal calf serum (Atlanta Biologicals, Lawrenceville, GA). OPCs were isolated from 10 days-in-vitro (DIV) mixed glial cultures by overnight shaking and purified by differential adhesion. OPCs were seeded in defined Neurobasal A media containing 1% N2, 50 U/mL penicillin/streptomycin, 2 mM Glutamax, 1 mM sodium pyruvate, 0.45% glucose, and 50 μM β-mercaptoethanol (Sigma Aldrich, USA). OPCs were seeded at 3×10^4/cm^2 onto tissue culture plastic or 12 mm glass cover slips coated with poly-L-lysine (PLL, 10 μg/mL). After 24 h, cultures were 92-98% immunoreactive (IR) for sulfatide (O4) and by 72 hours at least 80% were also MBP-IR.
PAR agonist-induced changes in oligodendrocyte morphology: To determine the effects of recombinant Klk6, Klk1, thrombin, or PAR1-AP on oligodendroglia, 3 DIV PAR1^+/+, PAR1^−/−, and PAR2^−/− oligodendrocytes, PAR1^+/+ OPCs immediately post purification, or Oli-neu cells were grown on cover slips in the presence of agonists for 24 h. For ATP toxicity assays, oligodendrocytes were incubated with ATP (50 μM, Sigma Aldrich) in the presence of Klk6 or Klk1. Following each treatment, oligodendrocyte and OPC cultures were immunolabeled for O4 to visualize the cell body and processes. Oli-neu processes were visualized by staining the actin cytoskeleton with Cy3-conjugated Phalloidin.
To assess the effects of Klk6 and other PAR1 agonists on oligodendrocyte morphology and process stability, 20× digital micrographs were overlaid with a 780 μm^2 grid and ImageJ software 1.45r (National Institutes of Health) used to record cell number and the number of processes crossing horizontal grid lines (Scarisbrick et al., Brain 125:1283-1296, 2002). Data are expressed as the mean number of O4^+ or Phalloidin^+ processes per DAPI^+ cell (±SEM).
Changes in OPC or oligodendrocyte morphology were quantified from five microscopic fields per cover slip with the mean and SEM calculated across three cover slips per experiment. Each experiment was repeated at least twice using independent cultures. Analysis of oligodendrocyte morphology was performed without knowledge of treatment groups.

[3] = target: T1, PAR1 (Mus musculus, UniProt P30558); assay: Organotypic cerebellar slice culture with PAR1 inhibitor; type: cell-based; parameters: endogenous in cells; host or cells: primary mouse oligodendrocytes (OPCs shaken from P1 cortical mixed glial cultures); details: 70 nM, 7 days
T1 sequence (P30558 22-430): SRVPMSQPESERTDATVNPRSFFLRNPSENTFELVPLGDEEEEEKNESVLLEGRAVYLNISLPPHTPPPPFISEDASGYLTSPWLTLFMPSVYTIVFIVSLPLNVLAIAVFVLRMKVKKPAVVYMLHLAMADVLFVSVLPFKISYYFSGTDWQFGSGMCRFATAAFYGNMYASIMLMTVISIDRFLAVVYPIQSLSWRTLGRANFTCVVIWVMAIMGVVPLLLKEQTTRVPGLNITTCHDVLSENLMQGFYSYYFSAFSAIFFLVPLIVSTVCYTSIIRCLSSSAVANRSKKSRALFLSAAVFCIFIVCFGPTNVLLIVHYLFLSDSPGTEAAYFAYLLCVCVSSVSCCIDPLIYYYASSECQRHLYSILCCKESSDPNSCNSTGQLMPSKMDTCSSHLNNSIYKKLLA
Procedure: Pharmacologic inhibition of PAR1 in an organotypic cerebellar slice culture system: Cerebellar slices (350 μm) from postnatal day 8 mouse brain were grown in cell culture for 7 days in the presence or absence of 70 nM SCH79797, a small molecule inhibitor of PAR1. Cerebellar slices were then fixed with 2% paraformaldehyde and stained using immunofluorescence techniques for myelin associated makers, including MBP, a marker of mature oligodendrocytes (CC-1), and for a marker of oligodendrocyte progenitor cells (NG2). The photomicrographs in FIG. 16 show staining for each individual antigen, or for all of the antigens collectively in a single slice, as indicated.

[4] = target: T1, PAR1; assay: Oligodendrocyte gene expression after PAR1 inhibitor treatment, real time RT-PCR; type: cell-based; parameters: endogenous in cells; host or cells: primary mouse oligodendrocytes (OPCs shaken from P1 cortical mixed glial cultures); details: 70 nM for 48 hours
[5] = target: T1, PAR1; assay: Neural precursor cell proliferation (BrdU incorporation); type: cell-based; parameters: endogenous in cells; details: 70, 35, 10 or 1 nM; NPCs from adult SVZ
Procedure: Effects of pharmacologic inhibition of PAR1 on NPC proliferation in vitro: NPCs were isolated from the SVZ of 8 week-old adult C57BL6/J mice, cultured in suspension, and treated with 70, 35, 10, or 1 nM of SCH79797, a small molecule inhibitor of PAR1.

- number of mature oligodendrocytes (CC-1) [3]: significant increases
- number of progenitor cells positive for NG2 [3]: significant increases
- abundance of MBP ([3]; P8 cerebellar slices): significant increases
- NogoA RNA [4]: decrease
- Olig2 RNA [4]: decrease
- expression of MBP RNA [4]: significant increase
- expression of PLP RNA ([4]; oligodendrocytes 24 hours in culture): significant increase
- BrdU incorporation [5]: greater levels
SMILES: CC(C)c1ccc(Cn2ccc3c4c(N)nc(NC5CC5)nc4ccc32)cc1 [SCH79797]
- ability of Klk6 to induce MAPK (Erk1/2) signaling in presence of inhibitor ([1]; SCH79797 50 nM, preincubated 30 minutes): blocked; also recorded: abolished
- Erk1/2 phosphorylation ([1]; treatment alone, Klk6 10 minutes): No significant changes
- Klk6-mediated inhibition of process outgrowth in presence of inhibitor ([2]; SCH79797 50 nM): diminished
- attenuation of the ability of Klk6 to reduce OPC process outgrowth ([2]; SCH79797 50 nM for 3 hours prior to Klk6): ~34%
- OPC process outgrowth relative to vehicle controls ([2]; SCH79797 alone): no significant effect
